Results reported in patent US11447481B2, “Microbiocidal oxadiazole derivatives” (SYNGENTA PARTICIPATIONS AG, priority 2017, dated 2022).

Columns and labels:
[1] = system: Puccinia recondita f. sp. tritici; experiment: Fungicidal activity against Puccinia recondita f. sp. tritici / wheat / leaf disc curative (brown rust); format: in vivo; conditions: foliar, 24 h, wheat leaf segments, curative (applied 1 day after inoculation), compared to untreated control
Procedure: (§1) Leaf disks or leaf segments of various plant species are cut from plants grown in a greenhouse. The cut leaf disks or segments are placed in multiwell plates (24-well format) onto water agar. The leaf disks are sprayed with a test solution before (preventative) or after (curative) inoculation. Compounds to be tested are prepared as DMSO solutions (max. 10 mg/ml) which are diluted to the appropriate concentration with 0.025% Tween20 just before spraying. The inoculated leaf disks or segments are incubated under defined conditions (temperature, relative humidity, light, etc.) according to the respective test system. A single evaluation of disease level is carried out 3 to 14 days after inoculation, depending on the pathosystem. Percent disease control relative to the untreated check leaf disks or segments is then calculated.
Wheat leaf segments cv. Kanzler are placed on agar in multiwell plates (24-well format). The leaf segments are inoculated with a spore suspension of the fungus. Plates are stored in darkness at 19° C. and 75% rh. The formulated test compound diluted in water is applied 1 day after inoculation. The leaf segments are incubated at 19° C. and 75% rh under a light regime of 12 h light/12 h darkness in a climate cabinet and the activity of a compound is assessed as percent disease control compared to untreated when an appropriate level of disease damage appears in untreated check leaf segments (6-8 days after application).

[2] = system: Puccinia recondita f. sp. tritici; experiment: Fungicidal activity against Puccinia recondita f. sp. tritici / wheat / leaf disc preventative (brown rust); format: in vivo; conditions: foliar, wheat leaf segments, preventative (inoculated 1 day after application), compared to untreated control
Procedure: as §1
Wheat leaf segments cv. Kanzler are placed on agar in multiwell plates (24-well format) and sprayed with the formulated test compound diluted in water. The leaf disks are inoculated with a spore suspension of the fungus 1 day after application. The inoculated leaf segments are incubated at 19° C. and 75% rh under a light regime of 12 h light/12 h darkness in a climate cabinet and the activity of a compound is assessed as percent disease control compared to untreated when an appropriate level of disease damage appears in untreated check leaf segments (7-9 days after application).

[3] = system: Glomerella lagenarium (Colletotrichum lagenarium); experiment: Fungicidal activity against Glomerella lagenarium (Colletotrichum lagenarium) liquid culture / cucumber / preventative (anthracnose); format: cell-based; conditions: Colletotrichum orbiculare, liquid culture (PDB), growth inhibition measured photometrically 3-4 days after application, compared to untreated control
Procedure: Mycelia fragments or conidia suspensions of a fungus prepared either freshly from liquid cultures of the fungus or from cryogenic storage, are directly mixed into nutrient broth. DMSO solutions of the test compound (max. 10 mg/ml) are diluted with 0.025% Tween20 by a factor of 50 and 10 µl of this solution is pipetted into a microtiter plate (96-well format). The nutrient broth containing the fungal spores/mycelia fragments is then added to give an end concentration of the tested compound. The test plates are incubated in the dark at 24° C. and 96% relative humidity. The inhibition of fungal growth is determined photometrically after 2 to 7 days, depending on the pathosystem, and percent antifungal activity relative to the untreated check is calculated.
Conidia of the fungus from cryogenic storage are directly mixed into nutrient broth (PDB potato dextrose broth). After placing a (DMSO) solution of test compound into a microtiter plate (96-well format), the nutrient broth containing the fungal spores is added. The test plates are incubated at 24° C. and the inhibition of growth is measured photometrically 3-4 days after application.

Phakopsora pachyrhizi = experiment: Fungicidal activity against Phakopsora pachyrhizi / soybean / leaf disc preventative (Asian soybean rust); format: in vivo; conditions: foliar, soybean leaf disks, compared to untreated control
Procedure: as §1
Soybean leaf disks are placed on water agar in multiwell plates (24-well format) and sprayed with the formulated test compound diluted in water. One day after application leaf discs are inoculated by spraying a spore suspension on the lower leaf surface. After an incubation period in a climate cabinet of 24-36 hours in darkness at 20° C. and 75% rh leaf disc are kept at 20° C. with 12 h light/day and 75% rh. The activity of a compound is assessed as percent disease control compared to untreated when an appropriate level of disease damage appears in untreated check leaf disks (12-14 days after application).

Cn1nnn(Cc2ccc(-c3noc(C(F)(F)F)n3)c(F)c2)c1=O [Compound B-5, 1-[[3-fluoro-4-[5-(trifluoromethyl)-1,2,4-oxadiazol-3-yl]phenyl]methyl]-4-methyl-tetrazol-5-one]
≥ 80%: pest or weed control at 200 ppm [1] | pest or weed control at 200 ppm [2] | inhibition of growth at 20 ppm [3] | pest or weed control at 200 ppm (Phakopsora pachyrhizi)

Cc1cccc(=O)n1Cc1cc(F)c(-c2noc(C(F)(F)F)n2)cc1F [Compound C-15, 1-[[2,5-difiuoro-4-[5-(trifluoromethyl)-1,2,4-oxadiazol-3-yl]phenyl]methyl]-6-methyl-pyridin-2-one]
≥ 80%: pest or weed control at 200 ppm [1] | pest or weed control at 200 ppm [2] | inhibition of growth at 20 ppm [3] | pest or weed control at 200 ppm (Phakopsora pachyrhizi)

Cc1cccc(=O)n1C(C)c1ccc(-c2noc(C(F)(F)F)n2)cc1 (stereo not drawn) [Compound C-16, 6-methyl-1-[1-[4-[5-(trifluoromethyl)-1,2,4-oxadiazol-3-yl]phenyl]ethyl]pyridin-2-one]
≥ 80%: pest or weed control at 200 ppm [1] | pest or weed control at 200 ppm [2] | inhibition of growth at 20 ppm [3]

O=S1(=O)C=CCN1Cc1ccc(-c2noc(C(F)(F)F)n2)cc1 [Compound A-1, 2-[[4-[5-(trifluoromethyl)-1,2,4-oxadiazol-3-yl]phenyl]methyl]-3H-isothiazole 1,1-dioxide]
≥ 80%: pest or weed control at 200 ppm [1] | pest or weed control at 200 ppm [2] | inhibition of growth at 20 ppm [3] | pest or weed control at 200 ppm (Phakopsora pachyrhizi)

Cc1cccc(=O)n1Cc1cc(F)c(-c2noc(C(F)(F)F)n2)c(F)c1 [Compound C-17, 1-[[3,5-difluoro-4-[5-(trifluoromethyl)-1,2,4-oxadiazol-3-yl]phenyl]methyl]-6-methyl-pyridin-2-one]
≥ 80%: pest or weed control at 200 ppm [1] | pest or weed control at 200 ppm [2] | inhibition of growth at 20 ppm [3]

Cc1cc(C)n(Cc2ccc(-c3noc(C(F)(F)F)n3)cc2)c(=O)c1 [Compound C-3, 4,6-dimethyl-1-[[4-[5-(trifluoromethyl)-1,2,4-oxadiazol-3-yl]phenyl]methyl]pyridin-2-one]
≥ 80%: pest or weed control at 200 ppm [1]

COc1c(-c2c(C)cc(C)cc2C)c(=O)n(Cc2ccc(-c3noc(C(F)(F)F)n3)cc2)n1C [Compound A-3, 5-methoxy-1-methyl-2-[[4-[5-(trifluoromethyl)-1,2,4-oxadiazol-3-yl]phenyl]methyl]-4-(2,4,6-trimethylphenyl)pyrazol-3-one]
≥ 80%: inhibition of growth at 20 ppm [3] | pest or weed control at 200 ppm (Phakopsora pachyrhizi)

CC(=O)n1ccc(=O)n1Cc1ccc(-c2noc(C(F)(F)F)n2)cc1 [Compound A-2, 1-acetyl-2-[[4-[5-(trifluoromethyl)-1,2,4-oxadiazol-3-yl]phenyl]methyl]pyrazol-3-one]
≥ 80%: pest or weed control at 200 ppm [1] | pest or weed control at 200 ppm [2] | inhibition of growth at 20 ppm [3] | pest or weed control at 200 ppm (Phakopsora pachyrhizi)

CC1=CC(C)C(=O)N1Cc1ccc(-c2noc(C(F)(F)F)n2)cc1 (stereo not drawn) [Compound B-7, 3,5-dimethyl-1-[[4-[5-(trifluoromethyl)-1,2,4-oxadiazol-3-yl]phenyl]methyl]-3H-pyrrol-2-one]
≥ 80%: pest or weed control at 200 ppm [2] | inhibition of growth at 20 ppm [3] | pest or weed control at 200 ppm (Phakopsora pachyrhizi)

O=c1ccn(-c2ccc(Cl)cc2)n1Cc1ccc(-c2noc(C(F)(F)F)n2)cc1 [Compound A-4, 1-(4-chlorophenyl)-2-[[4-[5-(trifluoromethyl)-1,2,4-oxadiazol-3-yl]phenyl]methyl]pyrazol-3-one]
≥ 80%: pest or weed control at 200 ppm [2] | pest or weed control at 200 ppm (Phakopsora pachyrhizi)
